Assay [1] has as its system IL-17 production by CD4 T cells. In words: Human Th17 assay (IL-17 production by CD4 T cells). In kind it is cell-based. Particulars: CD4+ T cells from healthy donors, Th17 differentiation, 3 days. The text has this: The human Th17 assay tests the effect of RORγt modulatory compounds on IL-17 production by CD4 T cells under conditions which favor Th17 differentiation. Total CD4^+ T cells were isolated from the peripheral blood mononuclear cells (PBMC) of healthy donors using a CD4^+ T cell isolation kit II, following the manufacturer's instructions (Miltenyi Biotec). Cells were resuspended in a medium of RPMI-1640 supplemented with 10% fetal bovine serum, penicillin, streptomycin, […], and β-mercaptoethanol and were added to 96-well plates at 1.5x10^5 per 100 µL per well. 50 µL of compound at titrated concentrations in DMSO were added into each well at final DMSO concentration at 0.2%. Cells were incubated for 1 hour, then 50 µL of Th17 cell differentiation medium was added to each well. The final concentrations of antibodies and cytokines (R&D Systems) in differentiation medium were: 3x10^6/mL anti-CD3/CD28 beads (prepared using human T cell activation/expansion kit, Miltenyi Biotec), 10 µg/mL anti-IL4, 10 µg/mL anti-IFNγ, 10 ng/mL IL1β, 10 ng/mL IL23, 50 ng/mL IL6, 3 ng/mL TGFβ and 20 U/mL IL2. Cells were cultured at 37 °C and 5% CO2 for 3 days. Supernatants were collected and the accumulated IL-17 in culture was measured by using MULTI-SPOT® Cytokine Plate following manufacture's instruction (Meso Scale Discovery). The plate was read using Sector Imager 6000, and IL-17 concentration was extrapolated from the standard curve. The IC50s were determined by GraphPad.

In assay [2] the target is T1, human RORγt ligand binding domain (RORγt LBD) (Homo sapiens, UniProt P51449).
T1 construct: made in house; host or cells: E. coli (pHIS1, modified pET vector)
T1 sequence (P51449 258-518): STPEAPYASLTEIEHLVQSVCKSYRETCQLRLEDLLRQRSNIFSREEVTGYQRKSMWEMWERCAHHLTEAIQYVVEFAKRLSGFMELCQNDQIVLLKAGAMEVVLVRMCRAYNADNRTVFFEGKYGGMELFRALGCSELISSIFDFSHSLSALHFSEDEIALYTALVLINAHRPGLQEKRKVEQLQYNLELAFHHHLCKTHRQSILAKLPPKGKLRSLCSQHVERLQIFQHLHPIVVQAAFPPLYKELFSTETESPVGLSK
The assay is described as follows: RORγt ThermoFluor assay (thermal shift binding affinity). Particulars: 0.065 mg/mL RORγt, pH 7.0; estimated from thermal shift. On the procedure: This approach is applicable to a wide variety of systems, and rigorous in theoretical interpretation through quantitation of equilibrium binding constants (KD).
The shift in the melting point described as a ΔTm is proportional to the concentration and affinity of the ligand. The compound potency may be compared as a rank order of either ΔTm values at a single compound concentration or in terms of KD values, estimated from concentration response curves.
ThermoFluor® experiments were carried out using instruments owned by Janssen Research and Discovery, L.L.C. through its acquisition of 3-Dimensional Pharmaceuticals, Inc. 1,8-ANS (Invitrogen) was used as a fluorescent dye. Protein and compound solutions are dispensed into black 384-well polypropylene PCR microplates (Abgene) and overlayed with silicone oil (1 µL, Fluka, type DC 200) to prevent evaporation.
Bar-coded assay plates are robotically loaded onto a thermostatically controlled PCR-type thermal block and then heated at a typical ramp-rate of 1 °C/min for all experiments. Fluorescence was measured by continuous illumination with UV light (Hamamatsu LC6) supplied via fiber optic and filtered through a band-pass filter (380-400 nm; >6 OD cutoff). Fluorescence emission of the entire 384-well plate was detected by measuring light intensity using a CCD camera (Sensys, Roper Scientific) filtered to detect 500 ± 25 nm, resulting in simultaneous and independent readings of all 384 wells. Images were collected at each temperature, and the sum of the pixel intensity in a given area of the assay plate was recorded versus temperature. Reference wells contained RORγt without compounds, and the assay conditions were as follows: • 0.065 mg/mL RORyt • 60 µM 1,8-ANS • 100 mM Hepes, pH 7.0 • 10 mM NaCl • 2.5 mM GSH • 0.002% Tween-20
Project compounds were arranged in a pre-dosed mother plate (Greiner Bio-one) wherein compounds are serially diluted in 100% DMSO by 1:2 from a high concentration of 10 mM over 12 columns within a series (column 12 is a reference well containing DMSO, no compound). The compounds were robotically dispensed directly into assay plates (1x = 46 nL) using a Hummingbird capillary liquid handling instrument (Digilab). Following compound dispense, protein and dye in buffer was added to achieve the final assay volume of 3 µL, followed by 1 µL of silicone oil.

Another assay deals with T2, human RORγt LBD (Homo sapiens, UniProt P51449).
T2 construct: expressed in transfected cells
T2 sequence (P51449 258-518): T1 sequence (P51449 258-518)
The assay is described as follows: RORγt reporter assay (GAL4-RORγt LBD luciferase in HEK293T cells). In kind it is cell-based. Particulars: for IC50: 24 hours compound treatment; for inhibition at 6 µM: HEK-293T. The text has this:
A reporter assay was used to test functional activity of RORγt modulatory compounds on transcriptional activation driven by the RORγt LBD. Cells used in the assay were co-transfected with two constructs. The first construct, pBIND-RORγt LBD, contained the wild type human RORγt LBD fused to the DNA binding domain of the GAL4 protein. The second construct, pGL4.31 (Promega Cat no. C935A), contained multiple GAL4 responsive DNA elements upstream of firefly luciferase. […] The mutant construct was called pBIND-RORγt-AF2.
The pBIND vector contains the GAL4 DNA Binding Domain (GAL4 DBD) and the renilla luciferase gene under control of the SV40 promoter. Renilla luciferase expression serves as a control for transfection efficiency and cell viability.
The reporter assay was performed by transiently transfecting HEK293T cells with 5 µg of pBIND-RORγt LBD or pBIND-RORγt LBD-AF2 and 5 µg pGL4.31 (Promega Cat no. C935A) using Fugene 6 (Invitrogen Cat no. E2691) at a 1:6 ratio of DNA: Fugene 6 in a T-75 flask in which cells were at least 80% confluent. Twenty four hours after bulk transfection, cells were plated into 96-well plates at 50,000 cells/well in phenol-red free DMEM containing 5% Lipid Reduced FCS and Pen/Strep. Six hours after plating, cells were treated with compounds for 24 hours. Media was removed and cells were lysed with 50 µL 1x Glo Lysis Buffer (Promega). Dual Glo Luciferase Reagent (50 µL/well) was then added and firefly luciferase luminescence was read on an Envision after a ten minute incubation. Finally, Stop and Glo reagent (50 µL/well) was added and renilla luciferase luminescence was read on an Envision after a ten minute incubation. To calculate the effect of compounds on RORγt activity, the ratio of firefly to renilla luciferase was determined and plotted against compound concentration. Agonist compounds increase RORγt-driven luciferase expression, and antagonist or inverse agonist compounds decrease luciferase expression.

Molecules are shown by their SMILES. Structures can show the parent of a compound that is named as a salt.

The values that follow come from patent EP3083561B1, “HETEROARYL LINKED QUINOLINYL MODULATORS OF RORYT” (Janssen Pharmaceutica NV, priority 2013, dated 2015).

What is called IC50 is the concentration needed to halve the response being measured. As to `Cn1cncc1C(O)(c1ccc(C(F)(F)F)nc1)c1ccc2nc(N3CCCC3)c(Oc3ccc(C#N)cc3)c(Cl)c2c1` (stereo not shown) [Example 2c], it took 100 nM to reach half-maximal inhibition in assay [1] (IC50).

A word on the Kd: it is a measure of binding affinity in units of concentration. With `CCN(CC)c1nc2ccc(C(O)(c3ccccn3)c3cncn3C)cc2c(Cl)c1Oc1ccccc1` (stereo not shown) [Example 3c], the Kd in assay [2] is 460 nM. On human RORγt LBD, the IC50 came out at 1100 nM.

By inhibition is commonly meant the change of the read-out against control, counted positive when it falls. As for `CCN(CC)c1nc2ccc(C(O)(c3ccccn3)c3cncn3C)cc2c(C#N)c1Oc1ccccc1` (stereo not shown) [Example 5b], on human RORγt LBD, it took 870 nM to reach half-maximal inhibition (IC50) and the inhibition at 6 µM stood at 102%.

With `Cn1cncc1C(O)(c1ccc(Cl)cc1)c1ccc2nc(N3CCC3=O)c(Oc3ccc(C#N)cc3)c(Cl)c2c1` (stereo not shown) [Example 1, 4-((4-chloro-6-((4-chlorophenyl)(hydroxy)(1-methyl-1H-imidazol-5-yl)methyl)-2-(2-oxoazetidin-1-yl)quinofin-3-yl)oxy)benzonitrile · TFA], the Kd in assay [2] is 58 nM. Besides, on human RORγt LBD, half-maximal inhibition (IC50) was put at 180 nM and the inhibition at 6 µM turned out to be 101%. In assay [1] (Homo sapiens, 72 h), this molecule had an IC50 of 300 nM.

Regarding `Cn1cncc1C(O)(c1ccc(C(F)(F)F)nc1)c1ccc2nc(N3CCCC3)c(Oc3ccc(C#N)cc3)c(Cl)c2c1` (racemic) [Example 2a, 4-((4-Chloro-6-(hydroxy(1-methyl-1H-imidazol-5-yl)(6-(trifluoromethyl)pyridin-3-yl)methyl)-2-(pyrrolidin-1-yl)quinolin-3-yl)oxy)benzonitrile], in assay [1] (Homo sapiens, CD4+ T, 72 h), the midpoint of inhibition, the IC50, lay at 88 nM.

Consider `CCN(CC)c1nc2ccc(C(O)(c3ccccn3)c3cncn3C)cc2c(C#N)c1Oc1ccccc1` (single isomer, unassigned) [Example 5c], for which the Kd in assay [2] is over 63000 nM. For the same molecule, the IC50 at human RORγt LBD was 270 nM; in assay [1] (Homo sapiens, 72 h), 150 nM.

For the molecule `CC(C)(C)OC(=O)N(c1ccccc1)c1c(Cl)nc2ccc(C(O)(c3cccnc3)c3cccc(Cl)c3)cc2c1Cl` (stereo not shown) [Example 7, tert-Butyl (2,4-dichloro-6-((3-chlorophenyl)(hydroxy)(pyridin-3-yl)methyl)quinolin-3-yl)(phenyl)carbamate], at human RORγt LBD, the inhibition at 6 µM came to 72%.

On to `CC(C)OC1CN(c2nc3ccc(C(O)(c4ccc(C(F)(F)F)nc4)c4cncn4C)cc3c(Cl)c2Oc2ccc(Cl)cc2)C1` (stereo not shown) [Example 6, (4-Chloro-3-(4-chlorophenoxy)-2-(3-isopropoxyazetidin-1-yl)quinolin-6-yl)(1-methyl-1H-imidazol-5-yl)(6-(trifluoromethyl)pyridin-3-yl)methanol], for which, in assay [2], the Kd was 11000 nM. Moreover, at human RORγt LBD, the IC50 was over 6000 nM and the inhibition at 6 µM came out at 41%.

`CCN(CC)c1nc2ccc(C(O)(c3ccccn3)c3cncn3C)cc2c(Cl)c1Oc1ccccc1` (stereo not shown) [Example 3b]: the Kd in assay [2] was 140 nM. Further, the IC50 against human RORγt LBD was 200 nM; in assay [1] (Homo sapiens, 72 h) it was 180 nM. Further, on human RORγt LBD, the inhibition at 6 µM came to 101%.

In turn, `Cn1cncc1C(O)(c1ccc(C(F)(F)F)nc1)c1ccc2nc(N3CCCC3)c(Oc3ccc(C#N)cc3)c(Cl)c2c1` (stereo not shown) [Example 2b] returned an IC50 in assay [1] of 320 nM.
